The text below walks through data of US8658672B2, “HIF-1α activating agent” (University of Seoul Foundation of Industrial and Academic …, priority 2006, dated 2014).

One assay has as its target T1, human PHD2 (Homo sapiens, UniProt Q9GZT9).
T1 construct: histidine tag; made in house; host or cells: E. coli
Put plainly: PHD2 activity, in vitro VHL pull down assay. The following applies: capture of [35S]-labeled VHL by GST-ODD of human HIF-1α. The assay is classed as biochemical. The procedure: The present inventors investigated the effect of CQ on the activity of PHD2. Human PHD2 gene (AJ310543) was cloned into pET21b His2(+) vector and then the human PHD2 was expressed with a histidine tag in E. coli and purified by Ni-affinity chromatography (Choi, K. O. et al., Mol. Pharrmacol. 68, 1803-1809, 2005). The in vitro VHL pull down assay was performed as described by Haakkola et al (Haakkola, P. et al., Science 292,468-472, 2001). Particularly, [^35S]-methionine-labeled VHL protein was synthesized by in vitro transcription and translation using the pcDNA3.1/myc-hygro-VHL plasmid (Promega, Cat# L1170, USA), according to the instruction manual (Promega, Cat# L1170). GST-ODD (amino acids 401-603 of human HIF-1α) was expressed in E. coli and purified with glutathione-uniflow resin according to the instruction manual (BD Bioscience Clontech, Cat# 8912-1, USA). […] After agitation at 4° C. for 2 hours, the resin was washed three times with 1 ml of NETN buffer, and proteins were eluted in 3×SDS sample buffer, fractionated by 12% SDS-PAGE, and detected by autoradiography. The amount of each sample loaded was monitored by staining the GST-ODD with Coomassie blue.

Assay [1] deals with HIF-1α. Put plainly: In vivo HIF-1α ubiquitination in HepG2 cells (Western blotting). As to conditions: normoxic condition, 6 hours, CQ 100 μM, TPEN 5 μM. The assay is classed as cell-based, human. On the technique in general: A western blot detects proteins with antibodies after separation by electrophoresis.
The next assay deals with GAL4-HIF-1α. Kind of assay: HIF-1α transactivation, Gal4-driven reporter gene assay in HepG2 cells. The assay is classed as cell-based, human. The following applies: TPEN 5 μM, 16 hours. As for the experimental part:
Human HepG2 hepatoma cells were cultured at the concentration of 5×10^4, which were transfected with 100 ng of Gal-4-driven reporter plasmid encoding the firefly luciferase gene under the control of the Gal4 binding site together with pGal4/HIF-1α plasmid which expresses HIF-1α linked to the DNA binding domain of the yeast Gal4 protein (amino acids 1-147). The transfected human HepG2 hepatoma cells were incubated in both normoxic and hypoxic conditions and then treated with CQ (10, 50 μM) for 16 hours in normoxic condition. 48 hours after the transfection, luciferase activities were analyzed using the reporter gene assay system (Promega, USA) and normalized by β-galactosidase activities.

The target in another assay is FIH-1 (Homo sapiens, UniProt Q9NWT6). Put plainly: In vitro FIH-1 activity (capture of radio-labeled HIF-1α by GST-CBP). The assay is classed as biochemical. Also noted: histidine tag; made in house; host or cells: E. coli. The following applies: CQ 10 μM and 50 μM; interaction between HIF-1α and CBP as readout. As for the experimental part: The human FIH-1 gene (AF395830) was cloned into pET28a vector (Novagen, USA) and FIH-1 was overexpressed in E. coli as a histidine-tagged fusion protein and purified by Ni-affinity chromatography. The fusion protein was purified by gel-filtration chromatography (Hi-Load Superdex 200) and concentrated by ultrafiltration (Choi et al., Mol Pharmacol 68:1803-1809, 2005).
Sequence of FIH-1 (Q9NWT6 whole entry, the tested form may be a part): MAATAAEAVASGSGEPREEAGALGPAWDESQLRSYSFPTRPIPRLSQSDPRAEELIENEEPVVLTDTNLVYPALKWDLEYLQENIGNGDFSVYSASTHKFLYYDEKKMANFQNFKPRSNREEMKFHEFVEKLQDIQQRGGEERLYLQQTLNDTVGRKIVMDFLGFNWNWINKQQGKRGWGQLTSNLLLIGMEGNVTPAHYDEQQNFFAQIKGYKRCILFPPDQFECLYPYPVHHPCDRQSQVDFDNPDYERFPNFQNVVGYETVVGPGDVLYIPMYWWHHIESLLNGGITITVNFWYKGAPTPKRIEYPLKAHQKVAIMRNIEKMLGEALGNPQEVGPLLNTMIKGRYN
The resin-bound GST-CBP N-domain (amino acids 1-450) (Kamei et al., Cell 85:403-414, 1996) was then added to 1 μg of each mixture in 500 μl of binding buffer (200 mM Tris-HCl (pH 8.0), 150 mM NaCl, 20 μM ZnCl2, 0.5 mM DTT) and incubation continued for one hour at 4° C. Glutathione-uniflow resin bound protein was washed four times with 1 ml of 0.1% Nondiet P-40 containing binding buffer, and visualized by SDS-PAGE by eluting using SDS sample buffer (Dann et al., Proc Natl Acad Sci USA 99:15351-15356, 2002). The present inventors substituted the asparagine-803 residue of HIF-1α with alanine to generate HIF-1α mutant [HIF-1α-C(N803A)], followed by investigation on FIH-1 activity by the same manner as described above.
Radio-labeled HIF-1α was reacted with the purified recombinant FIH-1, in the presence or absence of CQ or TPEN. FIH-1 was expected to […] the asparagine-803 residue of HIF-1α and thus inhibit the interaction with CBP binding to HIF-1α transactivation domain (Mahon, P. C. et al., Genes Dev. 15, 2675-2686, 2001; Dannm C. E. R., et al., Proc. Natl. Acad. Sci. USA 99, 15351-15356, 2002; Lando, D., et al., Science 295, 858-861, 2002; Freedman, S. J. et al., Proc. Natl. Acad. Sci. USA 99, 5367-5372, 2002).

Assay [2] relates to HIF-1α. Kind of assay: Effects of CQ and TPEN on HIF-1α stabilization in HepG2 cells (Western blotting). The assay is classed as cell-based, human. As to conditions: 6 hours, TPEN 5 μM.
Procedure: Human HepG2 hepatoma cells (ATCC HB-8065) were cultured under normoxic condition and under hypoxic condition, respectively. HepG2 cells were cultured in MEM (Invitrogen, USA) containing non-essential amino acids and supplemented with 10% FBS (fetal bovine serum: Biowhittaker, USA). The cells were made hypoxic by incubation in anaerobic incubator (Model 1029, Form a Scientific. Inc) at 37° C. with 5% CO2, 10% H2 and 85% N2. The cells were treated with drugs one hour before incubation under hypoxic condition. To separate RNAs, the cells were incubated for 16 hours under hypoxic condition and to separate proteins the cells were cultured for 6 hours under hypoxic condition. […] HIF-1α expression was investigated by Western blotting. Samples from each group proceeded to 8% SDS-PAGE for electrophoresis and were then transferred onto nitrocellulose membrane (Schleicher & Schuell Bioscience, USA). Anti-human HIF-1α antibody (BD Pharmingen, USA) (1:800) was used as a primary antibody and mouse-Ig conjugated horseradish peroxidase (1:3,000) was used as a secondary antibody. Anti-β tubulin antibody (BD, Pharmingen, USA) was used as a control.
The test system of assay [3] is HIF-1α. Put plainly: Effects of CQ and TPEN on HIF-1α stabilization in SH-SY5Y cells (Western blotting). The assay is classed as cell-based, human.
Procedure: Human SH-SY5Y neuroblastoma cells (ATCC CRL-2266) were cultured under normoxic condition and hypoxic condition, respectively. SH-SY5Y cells were cultured in MEM (Invitrogen, USA) containing non-essential amino acids and supplemented with 10% FBS (fetal bovine serum: Biowhittaker, USA). The cells were made hypoxic by incubation in anaerobic incubator (Model 1029, Form a Scientific Inc) at 37° C. with 5% CO2, 10% H2 and 85% N2. The cells were treated with drugs one hour before hypoxic treatment. To separate RNAs, the cells were incubated for 16 hours under hypoxic condition and to separate proteins the cells were cultured for 6 hours under hypoxic condition. […] HIF-1α expression was investigated by Western blotting. Samples from each group proceeded to 8% SDS-PAGE for electrophoresis and were then transferred onto nitrocellulose membrane (Sigma, USA). Anti-human HIF-1α antibody (BD, Pharmingen, USA) (1:800) was used as a primary antibody and mouse-Ig conjugated horseradish:peroxidase (1:3,000) was used as a secondary antibody. Anti-β tubulin antibody (BD, Pharmingen, USA) was used as a control.
Another assay deals with T2, HIF-1α and CBP (UniProt P45481+Q16665).
T2 construct: GST-CBP N-domain (amino acids 1-450); made in house
T2 sequence (P45481 1-450 limits assumed, one chain of several): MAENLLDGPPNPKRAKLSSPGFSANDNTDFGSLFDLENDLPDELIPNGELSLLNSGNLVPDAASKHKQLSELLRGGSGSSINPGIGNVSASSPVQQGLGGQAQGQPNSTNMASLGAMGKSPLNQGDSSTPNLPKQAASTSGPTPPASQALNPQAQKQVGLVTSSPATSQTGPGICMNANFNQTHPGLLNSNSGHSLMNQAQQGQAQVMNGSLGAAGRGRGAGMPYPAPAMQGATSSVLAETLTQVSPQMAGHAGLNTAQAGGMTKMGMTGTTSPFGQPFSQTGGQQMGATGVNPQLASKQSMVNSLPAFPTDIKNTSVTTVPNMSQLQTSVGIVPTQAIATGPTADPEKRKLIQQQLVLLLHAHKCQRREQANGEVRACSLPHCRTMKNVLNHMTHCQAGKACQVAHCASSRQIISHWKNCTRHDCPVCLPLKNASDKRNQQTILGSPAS
Kind of assay: In vitro interaction between HIF-1α and CBP. The assay is classed as binding, human. As to conditions: [35S]-labeled HIF-1α, bead-bound GST-CBP N-domain, with or without ZnCl2 20 μM. As for the experimental part:
Glutathione-uniflow resin bound protein was washed four times with 1 ml of 0.1% Nonidet P-40 containing binding buffer, eluted by heating in SDS sample buffer, and fractionated by SDS-PAGE (Dann et al., Proc Natl Acad Sci USA 99:15351-15356, 2002).

T1 sequence (Q9GZT9 whole entry): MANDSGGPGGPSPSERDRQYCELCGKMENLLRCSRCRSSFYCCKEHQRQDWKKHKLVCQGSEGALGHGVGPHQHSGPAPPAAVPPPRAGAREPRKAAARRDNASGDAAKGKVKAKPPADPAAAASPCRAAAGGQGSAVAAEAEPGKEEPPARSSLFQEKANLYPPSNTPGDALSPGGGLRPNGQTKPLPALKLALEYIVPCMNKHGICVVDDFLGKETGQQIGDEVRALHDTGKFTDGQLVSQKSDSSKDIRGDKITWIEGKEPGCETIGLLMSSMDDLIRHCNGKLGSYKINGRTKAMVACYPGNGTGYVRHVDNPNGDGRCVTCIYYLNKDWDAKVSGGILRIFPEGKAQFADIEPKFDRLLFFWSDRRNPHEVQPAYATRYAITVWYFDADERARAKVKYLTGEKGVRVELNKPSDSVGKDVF

`c1ccc(CN(CCN(Cc2ccccn2)Cc2ccccn2)Cc2ccccn2)nc1` [TPEN, tetrakis-(2-pyridylmethyl)ethanediamine]: the “activity of PHD2” value at human PHD2 is “increased the activity of PHD2”. Also, the “HIF-1α ubiquitination in cells” value in the assay on HIF-1α [1] is on record as “inhibited HIF-1α ubiquitination”. Moreover, the “transactivation activity of HIF-1α” value with GAL4-HIF-1α (hypoxic condition) was “increased HIF-1α activity”; with GAL4-HIF-1α (normoxic condition, CQ 10, 50 μM), “not in normoxic condition”. For the same compound, the FIH-1 activity result on FIH-1 is on record as “did not reduce FIH-1 activity”. The HIF-1α accumulation result with HIF-1α [2] (hypoxic condition, CQ 10, 100 μM, compared with a control) is on record as “induced HIF-1α accumulation”; in the assay on HIF-1α [3] (oxygen condition not printed in the sentence (control also accumulated)), “induced HIF-1α accumulation”. The “level of HIF-1α protein” value is given as “increased the level of HIF-1α protein” in the assay with HIF-1α [2] (normoxic condition, CQ 10, 100, 500 μM) and “increased the level of HIF-1α protein” in the assay with HIF-1α [3] (normoxic, 6 hours, TPEN 5 μM, CQ 10, 100 μM). For the same compound, the “direct effect on the interaction between CBP and HIF-1α” value at HIF-1α and CBP is “neither CQ nor TPEN directly affected the interaction between CBP and HIF-1α”.
